Consider one molecule from patent publication US20240290133A1, “HERBAL COMPOSITION FOR BREAST CANCER PREVENTION” (priority 2021, published 2024).

The test system of the data set is MCF-7 breast cancer cells. Briefly: MCF-7 cell viability (PrestoBlue Cell Viability Reagent, fluorescence). Particulars: individual ingredients, 2 mg/0.2 ml, 24 h, single replicate wells (Table 3). It counts as cell-based, human. How it is done:
In order to assess this activity, a well-established line of breast cancer cells used in cancer research was selected. MCF-7 is a widely studied cancer cell line derived from breast adenocarcinoma, it was proven to be a suitable model cell line for breast cancer investigations worldwide, including those regarding anticancer drugs.
The cells were cultured with growth medium and seeded in two 96 well plates incubated at 37 Celsius. The HCBCP solution was prepared by dissolving the powder in DPBS as per Table 1, below.
The obtained solutions were sterilized by 0.22-micron filtration.
An amount of 0.2 ml was applied in each test tube providing 2 mg of HCBCP. […]
After incubation period of 24 and 48 hours, cell viability was measured using PrestoBlue™ Cell Viability Reagent, according to manufacturer instructions.
Fluorescence was detected at excitation wavelength of 560 nm and an emission of 590 nm, using TECAN SPARK 10M microplate reader, at 24 and 48 hours after application. The fluorescence data is expressed as percentage of cell viability (%) compared to vehicle control.
Percentage of cell viability was calculated using the following formula: [(fluorescence of treated cells−mean background fluorescence)/(fluorescence of cells with vehicle control−mean background fluorescence)]×100, at 24 and 48 hours after application. […]

Structures are written as SMILES. “And” between values parts separate entries of the source, which are not always exact repeats. Equal entries are not always repeated.

As to `O=c1c(O)c(-c2ccc(O)c(O)c2)oc2cc(O)cc(O)c12` [BF 2 Q, Quercetin], the FU-background is 16881.00 FU and 16665.00 FU and 15291.00 FU and 14944.00 FU; the “Fluorescence units (FU)” value was 22892 FU and 22876 FU and 21302 FU.
